Test results as given in US10058582B2, “Therapeutic molecules and deviates for CRC” (ANTARTINA LLC, priority 2015, dated 2018).

Legend:
CT26 cells [1] = assay: CTL cytotoxicity assay (LDH release), CT26 targets; assay type: cell-based, mouse; details: splenocytes of treated cured mice, p<0.001
Experimental: (§1) viable splenocytes from control or treated mice (10×10^6) were stimulated in vitro with mitomycin C-treated CT26 cells (10×10^5 cells/well in 24-well-plates). On day 5, cells were harvested and washed, adjusted to 2×10^6/mL, and added to 96-well-plate (effector cells). To determine specific CTL cytotoxicity activity CT26 and BNL cells were used as target at 2×10^5/mL. After incubation for 4 h at 37° C., plates were centrifuged and cell-free supernatants were obtained. Levels of released LDH were evaluated with the LDH Cytotoxicity Detection Kit (Sigma-Aldrich) following the manufacturer's instructions and expressed as percentage of lysis.

CT26 CRC cells = assay: Long-term protection study (re-challenge); assay type: in vivo, BALB/c mice; details: 3 weeks after complete tumor regression, 5×10^5 cells left flank
Source text: to evaluate protective immunity, animals that were free of disease at 3 wk after complete regression of primary tumors (7 week after first tumor inoculation) were challenged with 5×10^5 CT26 cells on the left flank.

hepatocellular carcinoma = assay: Hepatocellular carcinoma in mice with advanced fibrosis (preliminary, data not shown); assay type: in vivo
BNL cells = assay: CTL cytotoxicity assay (LDH release), BNL targets; assay type: cell-based, mouse; details: splenocytes of treated mice, in vitro
Experimental: as §1

CT26 cells [2] = assay: Cell cycle analysis (propidium iodide, flow cytometry); assay type: cell-based, mouse; details: 48 h and 72 h, Antartina 10 µg/ml
Experimental: 1×10^6 CT26 cells cultured with DMEM or Antartina were collected washed in PBS and fixed in a mixture of ice-cold 70% (v/v) ethanol, FBS and distill water. Fixed cells were centrifuged and stained with propidium iodide (PI) solution (50 μg/ml PI, 180 U/ml RNAse). DNA content was determined using a FACS Accuri 6 laser flow cytometer (Becton Dickinson).

[3] = system: CT26 cells injected into the liver; assay: Liver metastatic CRC model; assay type: in vivo, BALB/c mice
Experimental: BALB/c mice received an intra-hepatic inoculation of 5×10^5 CT26 cells (day 0). The mice were distributed in experimental groups and treated with saline (control group, n=6); Antartina (5 mg/kg i.p., n=8 day 8). At day 18, animals were sacrificed and the volume of metastatic nodules was measured with caliper.

Toxicity studies = assay type: in vivo, BALB/c mice
Experimental: BALB/c mice untreated or treated with Antartina (5 mg/kg and 50 mg/kg) were used to assess its toxicology profile. […] Aspartate aminotransferase (AST) and alanine aminotransferase (ALT) levels were measured by standard colorimetric methods. Also, healthy mice or mice receiving Antartina were sacrificed to collect liver, spleen, and kidney samples. Paraffin embedded tissues were stained with H & E for pathological analysis.

CT26 CRC tumors = assay: Subcutaneous CRC model; assay type: in vivo, BALB/c mice; details: for microscopic examination of tumor sections (H & E): 10 and 15 days after treatment
Experimental: Subcutaneous CRC model: CT26 cells were injected at a dose of 5×10^5 cells subcutaneously (s.c.) into the right flank of BALB/c mice (day 0). Tumors were allowed to reach approximately 90 mm^3 in size before treatment was started. Animals were distributed in different groups and then treated with Antartina or 0.1% DMSO in sterile water intraperitoneal (i.p.) (control group, n=6); Antartina (5 or 50 mg/kg i.p., day 8, n=9). Tumor growth was assessed by caliper measurement.
tumor samples from experimental groups were obtained 10 and 15 days after treatment and fixed in 10% phosphate-buffered formalin. Five-micrometer sections from paraffin-embedded tissues were stained with hematoxylin and eosin (H & E) for histologic examination.

CT26 cells [4] = assay: Cell viability assay (MTS, 490 nm); assay type: cell-based, mouse
Experimental: Mouse CT26 tumor cell line, an undifferentiated murine colorectal carcinoma (CRC) cell line established from a N-nitroso-N-methylurethan-induced transplantable tumor in BALB/c (H-2d) mice and BNL hepatoma cell line was kindly provided by Prof. Jesús Prieto, University of Navarra, Spain. CT26 and BNL were cultured in complete DMEM (2 mM glutamine, 100 U/ml penicillin, […] streptomycin) and 10% heat-inactivated fetal bovine serum (FBS) and incubated at 37° C. in a 5% CO2 humidified atmosphere.
Antartina was dissolved in 0.1% DMSO and sterile water an injected intraperitoneally (i.p.) at the doses indicated or used for in vitro assays at different concentrations (0.1; 1 and 10 µg/ml). Fluorouracil Rontag® (5-Fu) 500 mg was diluted in saline solution at indicated concentrations (0.1; 1 and 10 µg/ml).
CT26 cells were plated onto 96-well plates at a density of 5×10^3 cells/well and cultured with DMEM or Antartina at different doses (0.1-1-10 […]at different doses (0.1-1-10 DMEM or y of 5×10t indicated concentrations (0.1; 1 and 10 nd 10 ions (0.1; 1 and 10 mental for 4 hour after which the absorbance of each well was read at 490 nm. All assays were performed in quadruplicate, and each assay was repeated twice.

[5] = system: tumor-infiltrating CD4+ and CD8+ T cells; assay: Flow cytometry of tumor-infiltrating T lymphocytes; assay type: in vivo, BALB/c mice; details: day 18, p<0.05
Experimental: previously, single cell suspensions were obtained by mechanical disruption of tumor samples treated with 0.5 mg/ml Collagenase I at 37° C. for 45 min and washed with PBS 1% bovine serum albumin. Then, tumor cells were stained with PECy5-anti-CD4 (BD Biosciences) and AlexaFluor488-anti-CD8 (BD Biosciences) and their respective isotypes and subjected to flow cytometry (FACSAria, BD). Data were analyzed using Cyflogic v. 1.2.1 software.

COc1cc(-c2cc(=O)c3c(O)cc(O[C@@H]4O[C@H](CO)[C@@H](O)[C@H](O)[C@H]4O)cc3o2)cc(OC)c1O [Antartina, Tricin 7-O-β-D-glucopyranoside]
specific CTL activity against CT26 cells (CT26 cells [1]): potent activation of specific cytotoxic T lymphocytes
specific CTL activity against CT26 cells (CT26 cells [1]; listed as Antarina): potent CTL activity against CT26 cells
re-challenge of cured animals with CT26 cells (CT26 CRC cells): rejected in all animals
antitumoral activity in vivo against hepatocellular carcinoma (hepatocellular carcinoma): antitumoral activity
CTL activity against BNL cells (BNL cells): no CTL activity
cell cycle pattern (CT26 cells [2]): arrested at G2/M phase
cell cycle pattern (CT26 cells [2]; listed as Antarina): halted CT26 cells at the transition from G2 to M-phase
treated animals showing a reduction in metastases growth ([3]; 5 mg/kg i.p.): more than 60%
mean of tumor volume ([3]; 5 mg/kg i.p. from day 8, day 18 after inoculation, control 1508±204): 955±275 mm^3
survival vs controls ([3]; 5 mg/kg i.p., liver metastatic model, p<0.01): superior
H & E stained tissues (liver, spleen, kidney) (Toxicity studies; 5 mg/kg and 50 mg/kg): no signs of toxicity
body weight gain in both groups (Toxicity studies; 5 and 50 mg/kg): similar
general health of animals (Toxicity studies; 5 and 50 mg/kg): remained healthy
tolerability, clinical and biochemical toxicity (AST, ALT) (Toxicity studies; 5 and 50 mg/kg, observed more than 30 days): well tolerated with no evident signs of clinical and biochemical toxicity
tumor growth vs saline control (CT26 CRC tumors; 5 mg/kg i.p., from day 8 three times a week, over 30 days): significant inhibition of tumor growth
survival rate vs controls (CT26 CRC tumors; 5 mg/kg i.p., s.c. CT26 model): significantly increased
complete tumor regression, percent of mice (CT26 CRC tumors; 50 mg/kg i.p.): more than 30%
tumor volume (CT26 CRC tumors; 50 mg/kg i.p. from day 8): potent tumor volume reduction
complete tumor regression, mice of group (CT26 CRC tumors; 50 mg/kg i.p., n=9): 3/9
animal survival vs saline control (CT26 CRC tumors; 50 mg/kg i.p., p<0.01): significantly increased
microscopic examination of tumor sections (H & E) (CT26 CRC tumors; 50 mg/kg i.p.): extensive areas of necrosis and marked mononuclear cells infiltration
microscopic examination of tumor sections (H & E) (CT26 CRC tumors; 50 mg/kg i.p., listed as Antarina): intense mononuclear infiltrate and extensive areas of necrosis
CT26 cell survival (CT26 cells [4]; 48 h, highest concentration, p<0.05): inhibits CT26 cell survival
cell viability reduced to (CT26 cells [4]; 72 h, 10 µg/ml, p<0.001): ~50%
cell viability reduced (CT26 cells [4]; 72 h, 1 µg/ml, p<0.05): more than 20%
proportion of tumor-infiltrating CD4+ and CD8+ T cells vs control [5]: increased proportion
